Measurements: PubChem BioAssay AID1963840 (Molecular Pharmacology Branch, DTP, NCI, 2024)

Test system: 695427-040-R-J1-PDC complex spheroid viability
Assay: Anticancer human tumor 695427-040-R-J1-PDC patient-derived colon adenocarcinoma cell line growth inhibition [POLQ]
Settings: for IC50: curve of first compound; for viability, T/C: stronger effect = lower value
Procedure: Multicellular complex tumor spheroid response to Polymerase (POL) inhibitors (novobiocin, ART-558, RP6685) in combination with a variety of drugs and investigational agents in selected tumor cell lines
The POL inhibitors (novobiocin, ART-558, and RP6685) were evaluated both individually and in combination with standard of care and investigational anticancer small molecules within a complex spheroid model of solid tumors. . Complex spheroids include a stromal component modeled by human endothelial cells (HUVEC) and fibroblasts modeled by human mesenchymal stem cells (MSCs). The concentration ranges selected for each drug and investigational agent were based upon clinically achievable concentrations if the clinical Cmax of the agent was known.
Compounds. The drugs and investigational agents: novobiocin (NSC847541), ART-558 (NSC835418), RP-6685 (NSC848927), peposertib (NSC802822), ceralasertib (NSC780249), elimusertib (NSC800525), camonsertib (NSC841442), AZD-1390 (NSC803789), olaparib (NSC753686), talazoparib (NSC767125), rucaparib (NSC756644), sotorasib (NSC818433), MRTX-1133 (NSC836407), SN-38 (NSC673596), topotecan (NSC609699), epotoside (NSC141540), doxorubicin (NSC123127), gemcitabine (NSC613327), 5-fluorouracil (NSC19893), paclitaxel (NSC125973), vemurafenib (NSC761431), MSA-2 (NSC828583), SN-011 (NSC837082), adavosertib (NSC754352), prexasertib (NSC758257), carboplatin (NSC241240) and oxaliplatin (NSC266046), were obtained from the National Cancer Institute (NCI) Developmental Therapeutics Program Chemical Repository (21). The FDA-approved anticancer drug set is available from the Developmental Therapeutics Program at https://dtp.cancer.gov/organization/dscb/obtaining/. […] The stock solutions were prepared in dimethyl sulfoxide (DMSO, Sigma-Aldrich, St. Louis, MO, cat. D2650), except for the platinum compounds which were prepared in saline (Quality Biological, Gaithersburg, MD, cat. 114-055-101), at 800-fold the tested concentration and stored at -70 degrees C prior to their use. All drugs and investigational agents were tested over a range starting from a high concentration at or near the clinical Cmax and decreasing in half-log increments. If the clinical Cmax for an agent had not been determined, the highest concentration tested was 10 microM, except for SN-38, which was tested at a high concentration of 1 microM.
Cell Culture. All cells were maintained in an incubator at 37 degrees C and 5% CO2 with 95% humidity. The PDC lines were cultured according to standard operating procedures established by the NCI PDMR (https://pdmr.cancer.gov). Table 3 of the manuscript, lists the cell lines along with the number of the three cell types plated to form the mct-spheroids and media for tumor cell growth. After thawing, all PDC lines, except 997537-175-T-J1-PDC and 415267-285-R-J2-PDC, were cultured in Matrigel-coated flasks prepared with a working solution of 1X Ham's F-12 nutrient mix, without supplementation (Thermo Fisher Scientific, cat. 11765054), 100 U/mL penicillin-streptomycin (Thermo Fisher Scientific, cat. 15140122), and 2.5% Matrigel (Corning Inc., Corning, NY, cat. 354248) for the first three passages. The two PDC lines 997537-175-T-J1-PDC and 415267-285-R-J2-PDC were cultured on uncoated flasks. The 857933-349-R-J2-PDC line was cultured in 6C/Colon 1B media containing advanced DMEM/F-12 (Thermo Fisher Scientific, cat. 12634028), 10 mM HEPES (Thermo Fisher Scientific, cat. 15630080), 1X GlutaMAX supplement (Thermo Fisher Scientific, cat. 35050061), 0.1 mg/mL primocin (InvivoGen, San Diego, CA, cat. ant-pm-2), 10% defined fetal bovine serum, heat inactivated (HyClone Laboratories Inc., Logan, UT, cat. SH30070.03HI), 50% L-WRN conditioned media (ATCC, cat. CRL-3276), 1.25 mM N-Acetyl-L-cysteine (Sigma-Aldrich, cat. A9165), 10 mM nicotinamide (Sigma-Aldrich, cat. N0636), 1X B-27 supplement (Thermo Fisher Scientific, cat. 17504044), 1X N-2 supplement (Thermo Fisher Scientific, cat. […]

[1] = second compound 0.0316 µM, first compound 0.0316 µM
[2] = second compound 0.0316 µM, first compound 0.1 µM
[3] = second compound 0.0316 µM, first compound 0.316 µM
[4] = second compound 0.0316 µM, first compound 1 µM
[5] = second compound 0.0316 µM, first compound 3.16 µM
[6] = second compound 0.0316 µM, first compound 10 µM
[7] = second compound 0.1 µM, first compound 0.0316 µM
[8] = second compound 0.1 µM, first compound 0.1 µM
[9] = second compound 0.1 µM, first compound 0.316 µM
[10] = second compound 0.1 µM, first compound 1 µM
[11] = second compound 0.1 µM, first compound 3.16 µM
[12] = second compound 0.1 µM, first compound 10 µM
[13] = second compound 0.316 µM, first compound 0.0316 µM
[14] = second compound 0.316 µM, first compound 0.1 µM
[15] = second compound 0.316 µM, first compound 0.316 µM
[16] = second compound 0.316 µM, first compound 1 µM
[17] = second compound 0.316 µM, first compound 3.16 µM
[18] = second compound 0.316 µM, first compound 10 µM
[19] = second compound 1 µM, first compound 0.0316 µM
[20] = second compound 1 µM, first compound 0.1 µM
[21] = second compound 1 µM, first compound 0.316 µM
[22] = second compound 1 µM, first compound 1 µM
[23] = second compound 1 µM, first compound 3.16 µM
[24] = second compound 1 µM, first compound 10 µM
[25] = second compound 3.16 µM, first compound 0.0316 µM
[26] = second compound 3.16 µM, first compound 0.1 µM
[27] = second compound 3.16 µM, first compound 0.316 µM
[28] = second compound 3.16 µM, first compound 1 µM
[29] = second compound 3.16 µM, first compound 3.16 µM
[30] = second compound 3.16 µM, first compound 10 µM
[31] = second compound 10 µM, first compound 0.0316 µM
[32] = second compound 10 µM, first compound 0.1 µM
[33] = second compound 10 µM, first compound 0.316 µM
[34] = second compound 10 µM, first compound 1 µM
[35] = second compound 10 µM, first compound 3.16 µM
[36] = second compound 10 µM, first compound 10 µM
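Note: spheroids exposed to compounds for seven days.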
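Throughout, for viability, T/C: 100% = DMSO vehicle control viability.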

## COc1cc(C2c3cc4c(cc3C(OC3OC5COC(C)OC5C(O)C3O)C3COC(=O)C23)OCO4)cc(OC)c1O (centres undefined) + COC1C(OC(N)=O)C(O)C(Oc2ccc3c(O)c(NC(=O)c4ccc(O)c(CC=C(C)C)c4)c(=O)oc3c2C)OC1(C)C
Second compound 0.0316 µM
  IC50: > 10 µM
Second compound 0.1 µM
  IC50: > 10 µM
Second compound 0.316 µM
  IC50: > 10 µM
Second compound 1 µM
  IC50: > 10 µM
Second compound 3.16 µM
  IC50: > 10 µM
Second compound 10 µM
  IC50: > 10 µM
[1]
  viability, T/C: 96.7%
[2]
  viability, T/C: 92.3%
[3]
  viability, T/C: 98.8%
[4]
  viability, T/C: 96.2%
[5]
  viability, T/C: 98.4%
[6]
  viability, T/C: 82.4%
[7]
  viability, T/C: 101%
[8]
  viability, T/C: 93.4%
[9]
  viability, T/C: 101%
[10]
  viability, T/C: 93.8%
[11]
  viability, T/C: 99.5%
[12]
  viability, T/C: 83.6%
[13]
  viability, T/C: 104%
[14]
  viability, T/C: 92.3%
[15]
  viability, T/C: 94.7%
[16]
  viability, T/C: 97%
[17]
  viability, T/C: 95.3%
[18]
  viability, T/C: 80.6%
[19]
  viability, T/C: 107%
[20]
  viability, T/C: 98.5%
[21]
  viability, T/C: 112%
[22]
  viability, T/C: 100%
[23]
  viability, T/C: 96.4%
[24]
  viability, T/C: 83.7%
[25]
  viability, T/C: 99.4%
[26]
  viability, T/C: 98.3%
[27]
  viability, T/C: 101%
[28]
  viability, T/C: 101%
[29]
  viability, T/C: 98.9%
[30]
  viability, T/C: 82.8%
[31]
  viability, T/C: 94.5%
[32]
  viability, T/C: 95.2%
[33]
  viability, T/C: 95.3%
[34]
  viability, T/C: 99.9%
[35]
  viability, T/C: 103%
[36]
  viability, T/C: 83.2%

## COc1cccc2c1C(=O)c1c(O)c3c(c(O)c1C2=O)CC(O)(C(=O)CO)CC3OC1CC(N)C(O)C(C)O1 (centres undefined) + COC1C(OC(N)=O)C(O)C(Oc2ccc3c(O)c(NC(=O)c4ccc(O)c(CC=C(C)C)c4)c(=O)oc3c2C)OC1(C)C
Second compound 0.0316 µM
  IC50: > 10 µM
Second compound 0.1 µM
  IC50: > 10 µM
Second compound 0.316 µM
  IC50: > 10 µM
Second compound 1 µM
  IC50: > 10 µM
Second compound 3.16 µM
  IC50: > 10 µM
Second compound 10 µM
  IC50: > 10 µM
[1]
  viability, T/C: 98.1%
[2]
  viability, T/C: 96.5%
[3]
  viability, T/C: 98%
[4]
  viability, T/C: 74%
[5]
  viability, T/C: 68.2%
[6]
  viability, T/C: 54.5%
[7]
  viability, T/C: 106%
[8]
  viability, T/C: 95.2%
[9]
  viability, T/C: 95.1%
[10]
  viability, T/C: 74.4%
[11]
  viability, T/C: 64%
[12]
  viability, T/C: 51.5%
[13]
  viability, T/C: 102%
[14]
  viability, T/C: 91.6%
[15]
  viability, T/C: 84%
[16]
  viability, T/C: 79%
[17]
  viability, T/C: 65.9%
[18]
  viability, T/C: 48.6%
[19]
  viability, T/C: 98.4%
[20]
  viability, T/C: 95.1%
[21]
  viability, T/C: 92.1%
[22]
  viability, T/C: 81.1%
[23]
  viability, T/C: 68.3%
[24]
  viability, T/C: 50.3%
[25]
  viability, T/C: 99.4%
[26]
  viability, T/C: 98%
[27]
  viability, T/C: 88.9%
[28]
  viability, T/C: 75.7%
[29]
  viability, T/C: 70.1%
[30]
  viability, T/C: 54.5%
[31]
  viability, T/C: 103%
[32]
  viability, T/C: 90.5%
[33]
  viability, T/C: 105%
[34]
  viability, T/C: 87.3%
[35]
  viability, T/C: 67.5%
[36]
  viability, T/C: 55.8%
